Reference: patent publication US9840508B2, “N-acyl-(3-substituted)-(8-methyl)-5,6-dihydro-[1,2,4]triazolo[4,3-a] pyrazines as selective NK-3 receptor antagonists, pharmaceutical composition, methods for use in NK-3 receptor-mediated disorders” (EUROSCREEN SA, priority 2013, dated 2017)
Where two headings read alike, the source gives them in different places.

Columns and labels:
[1] = target: T1, human NK-3 receptor (Homo sapiens (Human), UniProt P29371); test: Aequorin functional assay with human NK-3 receptor (antagonist testing); assay type: cell-based; details: CHO cells expressing human NK-3 receptor; agonist NKA at EC80 (3 nM); read-out: Functional assay: Aequorin assay with human NK-3 receptor hNK-3 - AEQ (antagonist IC50)
T1 sequence (P29371 whole entry): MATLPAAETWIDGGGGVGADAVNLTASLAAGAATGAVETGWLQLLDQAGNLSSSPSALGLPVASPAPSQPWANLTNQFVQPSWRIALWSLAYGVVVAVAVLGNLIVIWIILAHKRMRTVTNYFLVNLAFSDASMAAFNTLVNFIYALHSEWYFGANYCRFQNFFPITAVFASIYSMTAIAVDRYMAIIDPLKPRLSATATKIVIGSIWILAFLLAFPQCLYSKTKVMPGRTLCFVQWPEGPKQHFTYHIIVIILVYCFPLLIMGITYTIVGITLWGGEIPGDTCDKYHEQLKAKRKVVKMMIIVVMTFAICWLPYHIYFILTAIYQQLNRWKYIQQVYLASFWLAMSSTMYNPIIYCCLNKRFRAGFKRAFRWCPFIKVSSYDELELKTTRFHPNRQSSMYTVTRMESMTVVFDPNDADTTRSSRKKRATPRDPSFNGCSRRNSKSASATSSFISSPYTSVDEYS
Procedure: Aequorin Assay with Human NK-3 Receptor
Changes in intracellular calcium levels are a recognized indicator of G protein-coupled receptor activity. The efficacy of compounds of the invention to inhibit NKA-mediated NK-3 receptor activation was assessed by an in vitro Aequorin functional assay. Chinese Hamster Ovary recombinant cells expressing the human NK-3 receptor and a construct that encodes the photoproteinapoaequorin were used for this assay. In the presence of the cofactor coelenterazine, apoaequorin emits a measurable luminescence that is proportional to the amount of intracellular (cytoplasmic) free calcium.
The antagonist activity of compounds of the invention is measured following pre-incubation (3 minutes) of the compound (at various concentrations) with the cells, followed by addition of the reference agonist (NKA) at a final concentration equivalent to the EC80 (3 nM) and recording of emitted light (FDSS 6000 Hamamatsu) over the subsequent 90-second period. The intensity of the emitted light is integrated using the reader software. Compound antagonist activity is measured based on the concentration-dependent inhibition of the luminescence response to the addition of Neurokinin A.
The IC50 values shown in Table 2 indicate that compounds of the invention are potent NK-3 antagonist compounds.

[2] = target: T1, human NK-3 receptor; test: 3H-SB222200 binding competition assay with human NK-3 receptor
Procedure: The affinity of compounds of the invention for the human NK-3 receptor was determined by measuring the ability of compounds of the invention to competitively and reversibly displace a well-characterized NK-3 radioligand in a concentration-dependent manner.
^3H-SB222200 Binding Competition Assay with Human NK-3 Receptor
The ability of compounds of the invention to inhibit the binding of the NK-3 receptor selective antagonist ^3H-SB222200 was assessed by an in vitro radioligand binding assay. Membranes were prepared from Chinese hamster ovary recombinant cells stably expressing the human NK-3 receptor. The membranes were incubated with 5 nM ^3H-SB222200 (ARC) in a HEPES 25 mM/NaCl 0.1M/CaCl2 1 mM/MgCl2 5 mM/BSA 0.5%/Saponin 10 μg/ml buffer at pH 7.4 and various concentrations of compounds of the invention. The amount of ^3H-SB222200 bound to the receptor was determined after filtration by the quantification of membrane associated radioactivity using the TopCount-NXT reader (Packard).

[3] = target: human NK-1 receptor (Homo sapiens (Human), UniProt P25103); test: Selectivity binding assay, human NK-1 ([3H] substance P); details: CHO cell membranes; 2 nM [3H] substance P; read-out: hNK-1 (Ki)
Chain of human NK-1 receptor (P25103 whole entry): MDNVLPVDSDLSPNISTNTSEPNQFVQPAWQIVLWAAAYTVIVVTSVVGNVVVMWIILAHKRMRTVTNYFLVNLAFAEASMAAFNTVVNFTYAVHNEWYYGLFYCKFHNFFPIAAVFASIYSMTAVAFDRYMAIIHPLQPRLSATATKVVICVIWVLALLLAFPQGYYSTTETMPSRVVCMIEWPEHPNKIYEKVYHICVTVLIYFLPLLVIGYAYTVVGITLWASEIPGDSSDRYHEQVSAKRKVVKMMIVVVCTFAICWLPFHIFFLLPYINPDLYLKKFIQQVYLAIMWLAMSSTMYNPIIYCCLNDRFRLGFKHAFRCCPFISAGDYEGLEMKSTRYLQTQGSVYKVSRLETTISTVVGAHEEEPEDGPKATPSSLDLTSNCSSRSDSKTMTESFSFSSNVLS
Procedure: Selectivity of the compounds of the invention was determined over the other human NK receptors, namely NK-1 and NK-2 receptors.
The affinity of compounds of the invention for the NK-1 receptor was evaluated in CHO recombinant cells which express the human NK-1 receptor. Membrane suspensions were prepared from these cells. The following radioligand: [^3H] substance P (PerkinElmer Cat#NET111520) was used in this assay. Binding assays were performed in a 50 mM Tris/5 mM MnCl2/150 mM NaCl/0.1% BSA at pH 7.4. Binding assays consisted of 25 μl of membrane suspension (approximately 5 μg of protein/well in a 96 well plate), 50 μl of compound or reference ligand (Substance P) at increasing concentrations (diluted in assay buffer) and 2 nM [^3H] substance P. The plate was incubated 60 min at 25° C. in a water bath and then filtered over GF/C filters (Perkin Elmer, 6005174, presoaked in 0.5% PEI for 2 h at room temperature) with a Filtration unit (Perkin Elmer). The radioactivity retained on the filters was measured by using the TopCount-NXT reader (Packard). Competition curves were obtained for compounds of the invention and the concentrations of compounds which displaced 50% of bound radioligand (IC50) were determined and then apparent inhibition constant Ki values were calculated by the following equation: Ki=IC50/(1+[L]/KD) where [L] is the concentration of free radioligand and KD is its dissociation constant at the receptor, derived from saturation binding experiments (Cheng and Prusoff, 1973).

[4] = system: plasma protein; test: Determination of plasma protein binding (rapid equilibrium dialysis); assay type: in vitro ADME; details: 4 hours at 37° C.
Description: Determination of Plasma Protein Binding
The pharmacokinetic and pharmacodynamic properties of chemicals/drugs are largely a function of the reversible binding of chemicals to plasma or serum proteins. Generally, only the unbound or “free fraction” of a drug is available for diffusion or transport across cell membranes, and for interaction with a pharmacological/toxicological target. Consequently, the extent of the plasma protein binding (PPB) of a compound influences its action as well as its distribution and elimination.
The determination of plasma protein binding (PPB) of a compound is enabled by equilibrium dialysis, an accepted and standard method for reliable estimation of the non-bound drug fraction in plasma. RED (Rapid Equilibrium Dialysis) device insert is made of two side-by-side chambers separated by an O-ring-sealed vertical cylinder of dialysis membrane (MWCO˜8,000). Plasma containing drug (at 5 μM or blood concentrations otherwise corresponding to efficacious doses, if known) is added to one chamber while buffer is added to the second. After 4 hours incubation at 37° C. under shaking, an aliquot is removed from each chamber and analyzed by a LC-MS/MS procedure enables the determination of both free and bound drug.
The percentages provided in Table 4 represent for the compounds of the invention the bound drug fraction to the plasma protein. The “free fraction” may be calculated as 100%−% rPPB (i.e. the complementary percentage of that disclosed in Table 4, corresponding to the drug concentration that is unbound and therefore available to engage biological target and elicit pharmacological activity).

[5] = CHO cell membranes, 5 nM 3H-SB222200, Table 2, read-out: Competitive binding assay with human NK-3 receptor hNK-3 (Ki)
[6] = Table 3 (selectivity table), read-out: hNK-3 (Ki)

| IC50 [1] [nM] | Ki [2, 5] [nM] | Ki [2, 6] [nM] | Ki [3] [nM] | Exposure (% rPPB), bound drug fraction to the plasma protein [4] [%] | SMILES |
| --- | --- | --- | --- | --- | --- |
| 60 | 48 | 48 | > 30000 | 28 | Cc1ccc(-c2nnc3n2CCN(C(=O)c2ccc(F)cc2)[C@@H]3C)o1 [Compound 1, (R)-(4-fluorophenyl)(8-methyl-3-(5-methylfuran-2-yl)-5,6-dihydro-[1,2,4]triazolo[4,3-a]pyrazin-7(8H)-yl)methanone] |
| 20 | 22 | 22 | > 30000 | 50 | C[C@@H]1c2nnc(-c3csc(C(F)(F)F)n3)n2CCN1C(=O)c1ccc(F)cc1 [Compound 3, (R)-(4-fluorophenyl)(8-methyl-3-(2-(trifluoromethyl)thiazol-4-yl)-5,6-dihydro-[1,2,4]triazolo[4,3-a]pyrazin-7(8H)-yl)methanone] |
